This is an account of results in patent US20240208909A1, “SUBSTITUTED QUINOLINE DERIVATIVES HAVING SOS1 INHIBITION ACTIVITIES AND USES THEREOF” (Accutar Biotechnology Inc., priority 2022, published 2024).

Structures are written as SMILES.

The term GI50 denotes the concentration that inhibits growth by half.

One test concerns the target SOS1/KRAS-G12D (Homo sapiens (Human), UniProt Q07889). Briefly: SOS1/KRAS-G12D binding inhibition assay (AlphaScreen). The conditions noted are these: GST-SOS1 and 6*His KRAS-G12D, read-out: KrasG12D/SOS1 binding IC50. Summed up:
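GST-SOS1 (5 nM) pre-incubated 30 min with His6-KRAS-G12D (50 nM) in HEPES pH 7.4, NaCl, DTT, MgCl2, Tween-20, BSA; compound in 2% DMSO then added for 30 min at 4° C. GSH donor and Ni-NTA acceptor AlphaScreen beads, 2 h at 4° C; background-corrected % inhibition versus DMSO, IC50 by variable-slope nonlinear regression.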
(In general: Bead proximity is the source of the signal in Alpha formats.)

Test [1] deals with Phospho-ERK1/2 in DLD1 cells. The test can be described thus: Phospho-ERK1/2 expression inhibition in DLD1 cells. In kind it is cell-based. The following applies: Homo sapiens, DLD-1, 4 hours, read-out: DLD1 pERK IC50. Summed up: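 DLD1 cells (15,000/well) were plated overnight, then exposed to compounds for 4 h at 37 °C. Cells were formaldehyde-fixed and methanol-permeabilized. Phospho-ERK1/2 was detected in-cell with rabbit anti-phospho-ERK1/2 and an IRDye 800CW secondary antibody, imaged on a LI-COR Odyssey.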

In a further test the test system is K562 cells. The test can be described thus: Cell growth inhibition of K562 cells (CellTiter-Glo). The test is classed as cell-based. The following applies: Homo sapiens, 120 h, 5 days. A general note: In ATP-based viability assays light output follows the ATP content of the culture.

SOS1/KRAS-G12D, sequence (Q07889 564-1049 limits assumed): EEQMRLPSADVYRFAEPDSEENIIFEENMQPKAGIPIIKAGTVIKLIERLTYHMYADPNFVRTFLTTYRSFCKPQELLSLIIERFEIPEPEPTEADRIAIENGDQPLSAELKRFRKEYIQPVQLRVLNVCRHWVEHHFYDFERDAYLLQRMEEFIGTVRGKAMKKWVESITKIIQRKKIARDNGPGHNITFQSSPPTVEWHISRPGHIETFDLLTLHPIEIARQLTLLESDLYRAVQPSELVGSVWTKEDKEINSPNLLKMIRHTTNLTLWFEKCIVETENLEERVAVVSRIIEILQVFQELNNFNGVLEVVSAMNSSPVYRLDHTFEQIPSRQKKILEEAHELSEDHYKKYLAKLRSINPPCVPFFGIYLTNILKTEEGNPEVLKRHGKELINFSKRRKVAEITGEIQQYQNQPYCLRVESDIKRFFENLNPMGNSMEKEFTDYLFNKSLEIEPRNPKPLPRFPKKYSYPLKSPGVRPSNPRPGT

Take `C[C@@H](Nc1ccnc2ccc(N3CCC(N)CC3)cc12)c1cccc(C(F)F)c1F` [Compound 49, (R)-6-(4-aminopiperidin-1-yl)-N-(1-(3-(difluoromethyl)-2-fluorophenyl)ethyl)quinolin-4-amine]: the IC50 was not above 10 nM at SOS1/KRAS-G12D and more than 500 nM in test [1]. This compound also had a GI50 in the test on K562 cells of 100 to 500 nM.

As for `Cc1c([C@@H](C)Nc2ccnc3ccc(N4CCN[C@H](C)C4)cc23)cccc1C(F)(F)F` [Compound 50, N-((R)-1-(2-methyl-3-(trifluoromethyl)phenyl)ethyl)-6-((R)-3-methylpiperazin-1-yl)quinolin-4-amine], the IC50 is 10 to 100 nM on SOS1/KRAS-G12D and more than 500 nM in test [1]. For the same compound, the GI50 with K562 cells lay in the range of 100 to 500 nM.

As to `CC(=O)N1CCN(c2ccc3nccc(N[C@H](C)c4cccc(C(F)(F)F)c4C)c3c2)C[C@H]1C` [Compound 51, 1-((R)-2-methyl-4-(4-(((R)-1-(2-methyl-3-(trifluoromethyl)phenyl)ethyl)amino)quinolin-6-yl)piperazin-1-yl)ethan-1-one], the IC50 is 10 to 100 nM at SOS1/KRAS-G12D and more than 500 nM in test [1]. The same compound gave a 50% growth inhibitory concentration (GI50) with K562 cells of 100 to 500 nM.

`Cc1c([C@@H](C)Nc2ccnc3ccc(N4CCN(CC(F)(F)F)CC4)cc23)cccc1C(F)(F)F` [Compound 52, (R)-N-(1-(2-methyl-3-(trifluoromethyl)phenyl)ethyl)-6-(4-(2,2,2-trifluoroethyl)piperazin-1-yl)quinolin-4-amine]: the IC50 at SOS1/KRAS-G12D is more than 100 nM; in test [1] it was more than 500 nM. For the same compound, in the test with K562 cells, the GI50 is more than 500 nM.

With `Cc1c([C@@H](C)Nc2ccnc3ccc(N4CCN(C(=O)C5CCCO5)CC4)cc23)cccc1C(F)(F)F` (stereo partly drawn) [Compound 53, (4-(4-(((R)-1-(2-methyl-3-(trifluoromethyl)phenyl)ethyl)amino)quinolin-6-yl)piperazin-1-yl)(tetrahydrofuran-2-yl)methanone], the IC50 at SOS1/KRAS-G12D was 10 to 100 nM; in test [1] it was more than 500 nM. In the test on K562 cells, this compound came in with a GI50 of 100 to 500 nM.

For `Cc1c([C@@H](C)Nc2ccnc3ccc(N4C[C@H](C)NC[C@H]4C)cc23)cccc1C(F)(F)F` [Compound 54, 6-((2R,5S)-2,5-dimethylpiperazin-1-yl)-N-((R)-1-(2-methyl-3-(trifluoromethyl)phenyl)ethyl)quinolin-4-amine], the IC50 is 10 to 100 nM on SOS1/KRAS-G12D and more than 500 nM in test [1]. This compound came in with a GI50 with K562 cells of 100 to 500 nM.

Turning to `COc1cc2nccc(N[C@H](C)c3cccc(C(F)(F)F)c3C)c2cc1N1CCNCC1` [Compound 55, (R)-7-methoxy-N-(1-(2-methyl-3-(trifluoromethyl)phenyl)ethyl)-6-(piperazin-1-yl)quinolin-4-amine], the values for the IC50 (on SOS1/KRAS-G12D; in test [1]) were 10 to 100 nM and more than 500 nM, respectively. The GI50 in the test with K562 cells is more than 500 nM.

Turning to `Cc1c([C@@H](C)Nc2ccnc3ccc(N4C[C@@H](C)NC[C@@H]4C)cc23)cccc1C(F)(F)F` [Compound 56, 6-((2S,5R)-2,5-dimethylpiperazin-1-yl)-N-((R)-1-(2-methyl-3-(trifluoromethyl)phenyl)ethyl)quinolin-4-amine], the results for the IC50 (on SOS1/KRAS-G12D; in test [1]) were 10 to 100 nM and more than 500 nM, respectively. This compound showed a GI50 with K562 cells of 100 to 500 nM.

Take `CC(=O)N1C[C@@H](C)N(c2ccc3nccc(N[C@H](C)c4cccc(C(F)(F)F)c4C)c3c2)C[C@@H]1C` [Compound 57, 1-((2S,5R)-2,5-dimethyl-4-(4-(((R)-1-(2-methyl-3-(trifluoromethyl)phenyl)ethyl)amino)quinolin-6-yl)piperazin-1-yl)ethan-1-one]: the IC50 was more than 100 nM at SOS1/KRAS-G12D and more than 500 nM in test [1]. In the test on K562 cells, this compound displayed a GI50 of 100 to 500 nM.

With `Cc1c([C@@H](C)Nc2ccnc3ccc(N4CC5CC(C4)N5)cc23)cccc1C(F)(F)F` [Compound 58, 6-(3,6-diazabicyclo[3.1.1]heptan-3-yl)-N-((R)-1-(2-methyl-3-(trifluoromethyl)phenyl)ethyl)quinolin-4-amine], the IC50 at SOS1/KRAS-G12D is 10 to 100 nM; in test [1], more than 500 nM. The GI50 in the test with K562 cells lay within 100 to 500 nM.

Turning to `Cc1c([C@@H](C)Nc2ccnc3ccc(N4CC5CCC(C4)N5)cc23)cccc1C(F)(F)F` [Compound 59, 6-(3,8-diazabicyclo[3.2.1]octan-3-yl)-N-((R)-1-(2-methyl-3-(trifluoromethyl)phenyl)ethyl)quinolin-4-amine], the IC50 was 10 to 100 nM at SOS1/KRAS-G12D and more than 500 nM in test [1]. The same compound registered a GI50 in the test on K562 cells of 100 to 500 nM.

Take `Cc1c([C@@H](C)Nc2ccnc3ccc(N4CCNC[C@@H]4C)cc23)cccc1C(F)(F)F` [Compound 60, N-((R)-1-(2-methyl-3-(trifluoromethyl)phenyl)ethyl)-6-((S)-2-methylpiperazin-1-yl)quinolin-4-amine]: the IC50 on SOS1/KRAS-G12D was 10 to 100 nM; in test [1], more than 500 nM. The compound also yielded a GI50 in the test on K562 cells of 100 to 500 nM.

Turning to `CC(=O)N1CCN(c2ccc3nccc(N[C@H](C)c4cccc(C(F)(F)F)c4C)c3c2)[C@@H](C)C1` [Compound 61, 1-((S)-3-methyl-4-(4-(((R)-1-(2-methyl-3-(trifluoromethyl)phenyl)ethyl)amino)quinolin-6-yl)piperazin-1-yl)ethan-1-one], the IC50 was more than 100 nM on SOS1/KRAS-G12D and more than 500 nM in test [1]. The compound further had a GI50 in the test on K562 cells of more than 500 nM.

Take `CC(=O)N1CCCN(c2ccc3nccc(N[C@H](C)c4cccc(C(F)(F)F)c4C)c3c2)CC1` [Compound 62, (R)-1-(4-(4-((1-(2-methyl-3-(trifluoromethyl)phenyl)ethyl)amino)quinolin-6-yl)-1,4-diazepan-1-yl)ethan-1-one]: the IC50 at SOS1/KRAS-G12D was more than 100 nM; in test [1], more than 500 nM. Also, the GI50 in the test with K562 cells was more than 500 nM.

On to `Cc1c([C@@H](C)Nc2ccnc3ccc(N4CCCNCC4)cc23)cccc1C(F)(F)F` [Compound 63, (R)-6-(1,4-diazepan-1-yl)-N-(1-(2-methyl-3-(trifluoromethyl)phenyl)ethyl)quinolin-4-amine], for which the IC50 at SOS1/KRAS-G12D is 10 to 100 nM; in test [1] it was more than 500 nM. The 50% growth inhibitory concentration (GI50) in the test with K562 cells is more than 500 nM.

Consider `CC(=O)N1C2CC1CN(c1ccc3nccc(N[C@H](C)c4cccc(C(F)(F)F)c4C)c3c1)C2` [Compound 64, 1-(3-(4-(((R)-1-(2-methyl-3-(trifluoromethyl)phenyl)ethyl)amino)quinolin-6-yl)-3,6-diazabicyclo[3.1.1]heptan-6-yl)ethan-1-one], for which the figures for the IC50 (on SOS1/KRAS-G12D; in test [1]) were 10 to 100 nM and more than 500 nM, respectively. Further, in the test with K562 cells, the GI50 is more than 500 nM.

Turning to `Cc1c([C@@H](C)Nc2ccnc3ccc(N4CCC(N5CCC5)CC4)cc23)cccc1C(F)(F)F` [Compound 65, (R)-6-(4-(azetidin-1-yl)piperidin-1-yl)-N-(1-(2-methyl-3-(trifluoromethyl)phenyl)ethyl)quinolin-4-amine], the IC50 at SOS1/KRAS-G12D is 10 to 100 nM; in test [1] it was more than 500 nM. This compound displayed a concentration for 50% growth inhibition (GI50) in the test with K562 cells of more than 500 nM.

Turning to `CC(=O)N1C[C@H](C)N(c2ccc3nccc(N[C@H](C)c4cccc(C(F)(F)F)c4C)c3c2)C[C@H]1C` [Compound 66, 1-((2R,5S)-2,5-dimethyl-4-(4-(((R)-1-(2-methyl-3-(trifluoromethyl)phenyl)ethyl)amino)quinolin-6-yl)piperazin-1-yl)ethan-1-one], the IC50 is more than 100 nM at SOS1/KRAS-G12D and more than 500 nM in test [1]. The same compound gave a GI50 in the test with K562 cells of more than 500 nM.

On to `Cc1c([C@@H](C)Nc2ccnc3ccc(N4CCNC5(CC5)C4)cc23)cccc1C(F)(F)F` [Compound 69, (R)-N-(1-(2-methyl-3-(trifluoromethyl)phenyl)ethyl)-6-(4,7-diazaspiro[2.5]octan-7-yl)quinolin-4-amine], for which the results for the IC50 (on SOS1/KRAS-G12D; in test [1]) were 10 to 100 nM and more than 500 nM, respectively. The same compound came in with a GI50 in the test on K562 cells of 100 to 500 nM.

Turning to `CC(=O)N1CCN(c2ccc3nccc(N[C@H](C)c4cccc(C(F)(F)F)c4C)c3c2)CC12CC2` [Compound 70, (R)-1-(7-(4-((1-(2-methyl-3-(trifluoromethyl)phenyl)ethyl)amino)quinolin-6-yl)-4,7-diazaspiro[2.5]octan-4-yl)ethan-1-one], the figures for the IC50 (at SOS1/KRAS-G12D; in test [1]) were 10 to 100 nM and more than 500 nM, respectively. In the test with K562 cells, this compound gave a GI50 of 100 to 500 nM.

In the case of `COC1(c2ccc3nccc(N[C@H](C)c4cccc(C(F)F)c4F)c3c2)CCN(C(C)=O)CC1` [Compound 72, (R)-1-(4-(4-((1-(3-(difluoromethyl)-2-fluorophenyl)ethyl)amino)quinolin-6-yl)-4-methoxypiperidin-1-yl)ethan-1-one], the IC50 at SOS1/KRAS-G12D is not above 10 nM; in test [1], not above 150 nM. This compound also returned a GI50 with K562 cells not above 100 nM.

On to `COc1cc2nccc(N[C@H](C)c3cccc(C(F)F)c3F)c2cc1C1(OC)CCN(C(C)=O)CC1` [Compound 73, (R)-1-(4-(4-((1-(3-(difluoromethyl)-2-fluorophenyl)ethyl)amino)-7-methoxyquinolin-6-yl)-4-methoxypiperidin-1-yl)ethan-1-one], for which the IC50 on SOS1/KRAS-G12D is not above 10 nM; in test [1], more than 500 nM. Besides, the GI50 in the test with K562 cells is more than 500 nM.

For `COC(=O)N1CCC(F)(c2cc3c(N[C@H](C)c4cccc(C(F)(F)F)c4C)ccnc3cc2OC)CC1` [Compound 74, Methyl (R)-4-fluoro-4-(7-methoxy-4-((1-(2-methyl-3-(trifluoromethyl)phenyl)ethyl)amino)quinolin-6-yl)piperidine-1-carboxylate], the IC50 at SOS1/KRAS-G12D was in the range of 10 to 100 nM; in test [1], 150 to 500 nM. Further, the GI50 in the test with K562 cells was in the range of 100 to 500 nM.
